Experimental data: patent US20250186411A1, “Methods of Treating Disorders Associated with Overactivation of IKKB” (The United States Government as represented by the …, priority 2023, published 2025)
Where two headings read alike, the source gives them in different places.

How the values were obtained:
Assay type in all cases: cell-based
[1] = test system: KLF15 promoter (pEZX-FR03hKLF15p human podocytes); test: Half maximal effective concentration (EC50) of KLF15 reporter activity
Procedure: The EC50 was determined using nonlinear regression and then choosing the equation of Sigmoidal function, 4PL method (X is log(concentration); or the equation of log(agonist) vs. response—variable slope).
(§1) To identify small molecule inducers of KLF15 expression in human podocytes, human podocytes were generated with a dual reporter, firefly luciferase directed at the KLF15 promoter region and renilla luciferase (pEZX-FR03hKLF15p). […] The positive controls were inducers of KLF15 expression, dexamethasone (DEX) and all-trans retinoic acid (atRA), and […] and cell-free wells served as negative controls.

[2] = test system: KLF15 promoter (pEZX-FR03hKLF15p human podocytes); test: KLF15 reporter high-throughput screening assay in human podocytes (firefly/renilla luciferase); conditions: for fold induction at 1 µM: Homo sapiens, read-out: Fold Change (KLF15 reporter activity)
Procedure: Briefly, these podocytes proliferate under permissive conditions (gamma interferon at 33° C.), but differentiate under nonpermissive conditions (37° C.).
The amplified fragment contains MluI and PmeI RE sites and was subcloned into the MluI and PmeI cloning site of the pEZX-FR03 Firefly luciferase (FLuc) and Renilla luciferase (Rluc) reporter cloning vector (GeneCopoeia) to generate pEZX-FR03hKLF15p. Following verification of the sequence by restriction and μsequencing, the pEZX-FR03hKLF15p construct (which contains a puromycin resistance cassette) was transfected into human podocytes followed by selection in puromycin-containing media for 2 weeks. Surviving podocytes clones were pooled together for further analysis.
The library of compounds from the National Cancer Institute (Approved Oncology Drugs Set VI; Natural Products Set III; Diversity Set V; and Mechanistic Diversity Set II) were added to a final concentration of 1 μM in 0.5% DMSO in the low FBS cell culture media (0.2% FBS) using liquid handling system PipetMax (Gilson). After 24 hours incubation at 37° C., the Luc-Pair™ Duo-Luciferase HT Assay Kit (GeneCopoeia LF015) were used and firefly and renilla luciferase activity was determined using the SpectraMax M3 (Molecular Devices). Positive controls were all-trans retinoic acid (atRA) (1 μM) and dexamethasone (DEX) (1 μM). Negative controls were DMSO and cell-free media.
as §1

[3] = test system: human podocytes; test: Cell viability of podocytes (renilla activity, MTS assay); conditions: higher doses (10^4 nM), relative to DMSO
Procedure: Differentiated pEZX-FR03hKLF5p human podocytes were treated with 25 μg/ml lipopolysaccharide (LPS) or vehicle and 1 μM KLF15 agonist or vehicle control for 24 hours. Firefly and renilla luciferase assay were measured initially to determine relative KLF15 reporter activity.
Differentiated pEZX-FR03hKLF5p human podocytes were treated with 0.4 μg/ml adriamycin (ADR) or vehicle and 1 μM KLF15 agonist or vehicle control for 24 hours. Firefly and renilla luciferase assay were measured initially to determine relative KLF15 reporter activity.
To assess cell viability, the CellTiter 96® AQueous One Solution Reagent (Promega) was added to the culture media and plates were incubated for 2 hours at 37° C. with 5% CO2.

[4] = KLF15 reporter activity, dose-response, read-out: EC50
[5] = NCI library hits, 1 μM, 24 hours
[6] = Homo sapiens, KLF15 reporter activity, dose-response, read-out: EC50

Row | Molecule | EC50 [1, 6] [nM] | fold induction at 1 µM [2, 5] | further results
1 | 2-[2-[(2E)-2-[(5Z)-5-(anilinomethylene)-3-ethyl-4-oxo-thiazolidin-2-ylidene[hydrazino]thiazol-5-yl]-N-(o-tolyl)acetamide [C-26] | – | – | EC50 [1, 4]: 484 nM; Fold Change (KLF15 reporter activity) [2, 5]: 3.0168 fold
2 | 5-Methylbenzo[c]phenanthridin-5-ium-2,3,8,9-tetrol; pyridine; chloride; hydrochloride [C-23] | – | – | EC50 [1, 4]: 296 nM; Fold Change (KLF15 reporter activity) [2, 5]: 3.0541 fold
3 | Oc1ccc(-c2nc3ccccc3s2)cc1 [C-1, Phenol,4-(2-benzothiazolyl)] | – | – | EC50 [1, 4]: 99.6 nM; Fold Change (KLF15 reporter activity) [2, 5]: 3.0083 fold
4 | Nc1ccc2c(c1)CN1C(=O)c3ccccc3C1=N2 [C-2, Batracyclin] | 14.9 | 3.07 | –
5 | CN(C)c1ccc(/C=C2\C=Cc3ccccc32)cc1 [C-3, [(4-Dimethylamino)benzylidene]indene] | – | – | EC50 [1, 4]: 17.7 nM; Fold Change (KLF15 reporter activity) [2, 5]: 2.6455 fold
6 | CN(C)c1cccc(C=C(C#N)c2ccccc2)c1 [C-4, 2-Propenenitrile, 3-[3-(dimethylamino)phenyl]-2-phenyl-] | 23.7 | 2.57 | –
7 | COc1ccc2[nH]c(-c3ccccc3)cc2c1 [C-5, 5-methoxy-2-phenyl-1H-indole] | 55.9 | 3.14 | –
8 | Cc1cccnc1NC(=S)Nc1ncccc1C [C-6, 1,3-bis(3-methylpyridin-2-yl)thiourea] | 770 | 2.71 | –
9 | O=C(Nc1ccc2ccccc2c1)c1cccc(F)c1 [C-8, 3-fluoro-N-(2-naphthyl)benzamide] | 70.5 | 2.79 | –
10 | Clc1ccccc1-c1nc(-c2ccncc2)no1 [C-10, Pifexole] | 332 | 2.72 | –
11 | Nc1ccccc1C(=O)Nc1ccc(Cl)cc1Cl [C-11, 2-amino-N-(2,4-dichlorophenyl)benzamide] | 706 | 2.64 | –
12 | NC(=O)c1ccccc1OCC(=O)Nc1ccc(Cl)c(Cl)c1 [C-12, 2-[2-(3,4-Dichloroanilino)-2-oxoethoxy]benzamide] | 37.3 | 3.13 | –
13 | O=C(Nc1ccc(Cl)c(Cl)c1)Nc1ccccc1O [C-13, N-(3,4-dichlorophenyl)-N′-(2-hydroxyphenyl)urea] | 86.1 | 2.64 | –
14 | O=C(Nc1ccc(Nc2ccccc2)cc1)Nc1ccccc1Cl [C-14, 1-(4-Anilinophenyl)-3-(2-chlorophenyl)urea] | 42.1 | 3.03 | –
15 | FC(F)(F)c1cccc(-c2nc3nc(Cl)c(Cl)nc3[nH]2)c1 [C-16, 5,6-dichloro-2-[3-(trifluoromethyl)phenyl]-1H-imidazo[4,5-b]pyrazine] | 52.1 | 2.82 | –
16 | CC(=NNc1nc2ccccc2s1)c1ccncn1 [C-18, 2-(2-(1-(pyrimidin-4-yl)ethylidene)hydrazinyl)benzo[d]thiazole] | 156 | 3.29 | –
17 | CC1=C(O)C(=O)C=C2C1=CC=C1[C@@]2(C)CC[C@@]2(C)[C@@H]3C[C@](C)(C(=O)O)CC[C@]3(C)CC[C@]12C [C-19, Celastrol] | – | – | EC50 ([1]; Homo sapiens): 11.2 nM; fold induction at 1 µM ([2]; 24 h): 3.28
18 | COc1ccc(N=Nc2ccc(N)nc2N)cc1 [C-20, 3-[(4-Methoxyphenyl)azo]-2,6-pyridinediamine] | 84.4 | 3.14 | –
19 | Cc1ccc(NC(=O)c2cccc([N+](=O)[O-])c2O)c([N+](=O)[O-])c1 [C-21, 2-hydroxy-N-(4-methyl-2-nitrophenyl)-3-nitrobenzamide] | – | – | EC50 ([1]; Homo sapiens): 61.4 nM; fold induction at 1 µM ([2]; 24 h): 3.11
20 | Cc1ccc(N/N=C2\C(=N)N(c3ccccc3)N=C2N)cc1 [C-24, (4Z)-5-imino-4-[(4-methylphenyl)hydrazinylidene]-1-phenylpyrazol-3-amine] | 2670 | 3.03 | –
21 | Cc1cc(N(C)C)ccc1/N=N/c1ccc2ncccc2c1 [C-25, N,N,3-trimethyl-4-[(E)-6-quinolylazo]aniline] | 15.8 | 3.02 | –

Row | Molecule | EC50 [1, 6] [nM] | fold induction at 1 µM [2, 5] | further results
22 | Cc1nc(-n2nc(-c3ccccc3)cc2-c2ccccc2)sc1C(=O)C=Cc1ccc(Cl)c(Cl)c1 [C-27, 3-(3,4-dichlorophenyl)-1-(2-(3,5-diphenyl-1H-pyrazol-1-yl)-4-methylthiazol-5-yl)prop-2-en-1-one] | – | 2.89 | –
23 | CN(C)c1ccc(N=Nc2cccc3ccoc23)cc1 [C-28, 7-(p-N,N-Dimethylaminophenylazo)benzofuran] | ~6310 | 2.87 | –
24 | Cc1cccn2c(=O)[nH]nc12 [C-29] | – | – | EC50 [1, 4]: 550 nM; Fold Change (KLF15 reporter activity) [2, 5]: 2.8700 fold
25 | c1ccc(-c2nnc(-c3ccccn3)s2)nc1 [C-30, 2,5-dipyridin-2-yl-1,3,4-thiadiazole] | 335 | 2.86 | –
26 | O=C1C(c2cnc3ccccc3n2)=C(O)c2ccccc21 [C-31, 1-Indenone, 3-hydroxy-2-(2-quinoxalinyl)-] | 45.9 | 2.85 | –
27 | CCOC(=O)c1sc2[n+](c1C)C(=O)/C(=C/c1ccc([N+](=O)[O-])cc1)S2.[Cl-] [C-32, ethyl (2Z)-5-methyl-2-[(4-nitrophenyl)methylidene]-3-oxo-[1,3]thiazolo[2,3-b][1,3]thiazol-4-ium-6-carboxylate;chloride] | – | – | Fold Change (KLF15 reporter activity) [2, 5]: 2.8360 fold
28 | O=C1C=C/C(=C2/Nc3ccccc3S2)C(O)=C1 [C-33, (4E)-4-(3H-1,3-benzothiazol-2-ylidene)-3-hydroxycyclohexa-2,5-dien-1-one] | 490 | 2.75 | –
29 | O=C1Nc2ccccc2C1=NNC(=O)c1ccccc1O [C-34, 2-hydroxy-N′-(2-oxo-1,2-dihydro-3H-indol-3-ylidene)benzohydrazide] | 122 | 2.69 | –
30 | COc1ccc2c(n1)Sc1nc3ccccc3nc1N2 [C-35, 7-Methoxy-1,4,6-benzotriazaphenothiazine] | – | – | EC50 [1, 4]: 319 nM; Fold Change (KLF15 reporter activity) [2, 5]: 2.6597 fold
31 | O=C(NC(=S)Nc1ccccn1)c1ccccc1 [C-36, N-(pyridin-2-ylcarbamothioyl)benzamide] | 292 | 2.64 | –
32 | CN(C)c1ccc(N=Nc2ccccn2)cc1 [C-37, 4-(2-pyridylazo)-n,n-dimethylaniline] | – | – | EC50 [1, 4]: 27 nM; Fold Change (KLF15 reporter activity) [2, 5]: 2.6148 fold
33 | O=C(Nc1cccc([N+](=O)[O-])c1)c1ccc2ccccc2c1O [C-38, 2-<3-Nitro-phenylcarbamoyl>-naphth-1-ol] | – | – | EC50 [1, 4]: 145 nM; Fold Change (KLF15 reporter activity) [2, 5]: 2.6069 fold
34 | Cc1csc(N=Nc2ccc(N(C)C)cc2)[n+]1[O-] [C-39, N,N-dimethyl-4-[(4-methyl-3-oxido-1,3-thiazol-3-ium-2-yl)diazenyl]aniline] | ~6890 | 2.6 | –
35 | COc1ccc(C(C#N)=Cc2ccccn2)cc1 [C-40, 2-(4-methoxyphenyl)-3-pyridin-2-ylprop-2-enenitrile] | 546 | 2.6 | –
36 | COc1cccc2nc3cc(C)c(C)cc3nc12 [C-41, 1-Methoxy-7,8-dimethylphenazine] | 215 | 2.59 | –
37 | O=C1C(=Cc2ccc([N+](=O)[O-])cc2)Sc2scc(-c3cccc([N+](=O)[O-])c3)[n+]21 [C-42, Thiazolo[2,3-b]thiazolium, 2,3-dihydro-2-[(4-nitrophenyl)methylene]-5-(3-nitrophenyl)-3-oxo-, chloride] | – | – | fold induction at 1 µM ([2]; 24 h): 2.58
38 | Cc1ccc(NNC2=C3N=NN=C3C=CC2=O)cc1 [C-43, 4-[2-(4-methylphenyl)hydrazinyl]benzotriazol-5-one] | 866 | 2.57 | –
39 | COc1cccc(C=Cc2nccc3ccccc23)c1OC [C-44] | – | – | EC50 [1, 4]: ~1840 nM; Fold Change (KLF15 reporter activity) [2, 5]: 2.5631 fold
40 | C[C@@H]1C[C@H]2[C@@H]3CCC4=CC(=O)C=C[C@]4(C)[C@@]3(F)[C@@H](O)C[C@]2(C)[C@@]1(O)C(=O)CO [DEX, dexamethasone, reference compound] | – | – | renilla activity in dose-response [3]: trend towards lower renilla activity
41 | Tin(IV), chlorotriphenyl[1-(4-ethoxyphenyl)-3-cyanoureato]-, hydrogen, trimethylamine [C-17] | – | – | Fold Change (KLF15 reporter activity) [2, 5]: 4.6159 fold
